From US9834548B2, “Pyridazine compounds as JAK inhibitors” (Portola Pharmaceuticals, Inc., priority 2014, dated 2017)
Like-named read-outs stand apart in the source and are kept apart here.

Assays:
[1] = target: JAK1 (Homo sapiens (Human), UniProt P23458); test: Purified kinase assay (Z'-LYTE), JAK1; assay type: biochemical
How it was run: (§1)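 Catalytic-domain recombinant kinase with Tyr6 peptide (a separate Tyr6 kit for TYK2) and ATP, 1% DMSO final, reacted 1 h at room temperature. Z′-LYTE FRET read after 1 h protease development (ex 400, em 445/520 nm). Inhibition computed from percent substrate phosphorylation versus no inhibitor; IC50 from 4-parameter logistic fit.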

[2] = target: JAK2 (Homo sapiens (Human), UniProt O60674); test: Purified kinase assay (Z'-LYTE), JAK2; assay type: biochemical
Chain of JAK2 (O60674 849-1124): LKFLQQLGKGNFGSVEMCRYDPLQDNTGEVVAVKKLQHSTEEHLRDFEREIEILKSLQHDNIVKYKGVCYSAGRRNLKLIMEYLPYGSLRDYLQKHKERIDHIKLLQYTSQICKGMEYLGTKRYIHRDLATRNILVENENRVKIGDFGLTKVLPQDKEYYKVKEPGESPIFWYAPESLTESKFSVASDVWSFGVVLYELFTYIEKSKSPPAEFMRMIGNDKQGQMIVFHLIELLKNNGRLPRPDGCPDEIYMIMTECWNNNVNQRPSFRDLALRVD
How it was run: as §1

[3] = target: JAK3 (Homo sapiens (Human), UniProt P52333); test: Purified kinase assay (Z'-LYTE), JAK3; assay type: biochemical
Chain of JAK3 (P52333 822-1111): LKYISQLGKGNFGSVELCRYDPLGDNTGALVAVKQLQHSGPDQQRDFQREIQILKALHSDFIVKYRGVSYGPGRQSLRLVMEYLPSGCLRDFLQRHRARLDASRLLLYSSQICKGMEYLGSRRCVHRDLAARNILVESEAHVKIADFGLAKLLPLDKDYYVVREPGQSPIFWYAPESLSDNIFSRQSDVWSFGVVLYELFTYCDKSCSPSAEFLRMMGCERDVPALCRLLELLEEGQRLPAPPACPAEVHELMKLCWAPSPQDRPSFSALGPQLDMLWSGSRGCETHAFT
How it was run: as §1

[4] = target: TYK2 (Homo sapiens (Human), UniProt P29597); test: Purified kinase assay (Z'-LYTE), TYK2; assay type: biochemical
Chain of TYK2 (P29597 897-1176): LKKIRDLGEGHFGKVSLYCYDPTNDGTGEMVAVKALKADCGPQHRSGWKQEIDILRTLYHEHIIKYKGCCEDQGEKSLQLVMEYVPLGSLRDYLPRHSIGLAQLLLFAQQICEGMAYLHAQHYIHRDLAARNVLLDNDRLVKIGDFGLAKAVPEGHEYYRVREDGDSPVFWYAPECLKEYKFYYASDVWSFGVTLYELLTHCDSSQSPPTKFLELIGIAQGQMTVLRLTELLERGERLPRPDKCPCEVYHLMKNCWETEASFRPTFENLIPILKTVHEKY
Description: JAK and TYK2 tyrosine phosphorylation activity is measured using the Z′-LYTE™ Technology developed by Invitrogen Corporation (Carlsbad, Calif.). For JAK1, JAK2 and JAK3 the Z′-LYTE™ Kinase Assay Kit-Tyr6 Peptide (part number PV4122) was used. For TYK2 the Z′-LYTE™ Kinase Assay Kit-Tyr6 Peptide (part number PV3192) was used. The Z′-LYTE™ biochemical assay employs a fluorescence resonance energy transfer (FRET) coupled-enzyme format and is based on the differential sensitivity of phosphorylated and non-phosphorylated peptides to proteolytic cleavage. The assay uses a synthetic peptide substrate that is labeled with a donor fluorophore (coumarin) and an acceptor fluorophore (fluorescein) that make up a FRET pair. In the primary reaction (the Kinase Reaction), the kinase transfers the γ-phosphate of ATP to a single tyrosine residue on the substrate, while the presence of a kinase inhibitor in the primary reaction suppresses phosphorylation. In the secondary reaction (the Development Reaction), a site-specific protease (the Development Reagent) is added. The development buffer quenches the Kinase Reaction, while the protease recognizes and cleaves non-phosphorylated Z′-LYTE™ peptide substrate. Cleavage disrupts FRET between the donor and acceptor fluorophores on the non-phosphorylated substrate, while uncleaved, phosphorylated substrate maintains FRET.
To test the ability of candidate molecules to inhibit JAK tyrosine phosphorylation activity, molecules are reconstituted in 100% DMSO and serially diluted 1:10 in polypropylene v-bottom microtiter plates. The candidate molecules are then diluted 1:25 into kinase buffer and 2.5 μl transferred into duplicate wells of a 384 well low volume black microtiter assay plate (Corning, USA). The final DMSO concentration in the assay is 1%. The kinase reaction contains 2.5 μl of a candidate molecule, 5 μl of catalytic domain recombinant Kinase enzyme+Tyr peptide substrate (Invitrogen, CA) and ATP (Invitrogen, CA). The kinase reaction is allowed to proceed for 1 hour at room temperature. The protease reaction is initiated by the addition of Development Reagent (Invitrogen, CA). After 1 hour incubation at room temperature the fluorescence is measured using a FlexStation plate reader (Molecular Devices, Sunnyvale, Calif.). The reader settings used are as follows: Fluorescence mode, endpoint, top read, excitation 400 nm, emission 445 nm and 520 nm, Auto Cutoff 435 nm and 515 nm, PMT sensitivity high, 6 reads per well Inhibition of JAK activity is calculated as the percent phosphorylation of substrate in the presence of inhibitor compared to the percent phosphorylation of substrate in the absence of inhibitor. IC50's were derived using Xlfit 4.3 (IDBS, UK), 4 parameter logistic model 205: Y=(A+((B−A)/(1+((C/x)^D)))).

[5] = tested on: JAK3/JAK1 (IL2-STAT5 in PBMC); test: Intracellular STAT5 phosphorylation following IL2 stimulation of PBMC (JAK3/JAK1 cellular assay); assay type: cell-based; conditions: Homo sapiens, read-out: IL2-STAT5 percent inhibition of STAT phosphorylation
Description: Human whole blood was collected into lithium heparin vacutainer tubes from the antecubital vein of human subjects. Peripheral blood mononuclear cells (PBMC) were prepared by layering 10 ml anti-coagulated blood over 5 ml lymphoprep in a 15 ml conical tube and centrifugation for 20 minutes at 400×g in a swinging bucket rotor. The lymphocyte layer was removed, washed twice in tissue culture media (RPMI containing 10% fetal bovine serum) prior to re-suspension in the same media at 2×10^6 cells/ml. 100 μl aliquots of PMBCs were incubated for 1 h at 37° C. with various concentrations of JAK inhibitors prior to stimulation for 15 minutes with 1.5 ng/ml of IL2 or IL4. The reaction was terminated by the addition of 60 μl 16% paraformaldehyde, followed by incubation at room temperature for 10 minutes. Fixed cells were washed twice in PBS, and then re-suspended in −20° C. 50% methanol diluted in PBS and stored at 4° C. overnight. Following permeabilization of the cell membrane in methanol, cells were washed twice in PBS containing 1% BSA and PBMCs were re-suspended in the same buffer containing CD3 and STAT5 Y694 specific antibodies (IL2 stimulations) or CD3, CD14, CD19, and STAT6 Y641 specific antibodies (IL4 stimulations) for 1 hour at room temperature. Cells were then washed and re-suspended in PBS/BSA buffer and assessed by flow cytometry (LSRII; BD Biosciences) for effect of JAK inhibitors on cytokine mediated STAT phosphorylation.
(§2) Percent inhibition of STAT phosphorylation in the cellular assays is provided for the compounds at the given concentrations.

[6] = tested on: JAK2 (GM-CSF-induced pSTAT5 in TF1 cells); test: GMCSF-induced pSTAT5 formation in TF1 (JAK2 cellular assay); assay type: cell-based; conditions: Homo sapiens, TF-1, read-out: TF1/GM-CSF percent inhibition of STAT phosphorylation
Description: 100 μl aliquots of TFI (2.5×10^6/ml) cells were pre-treated with various concentrations JAK inhibitors (0.04 to 5 μM, including 0.2 μM and 1 μM) for 1 hour at 37° C. Cells were then stimulated with 2 ng/ml GM-CSF for 10 minutes at 37° C. The reaction was terminated by the addition of 60 μl 16% paraformaldehyde followed by incubation for 10 minutes at room temperature. Cells were washed twice (centrifugation 5 minutes room temperature at 385×g) in PBS followed by re-suspension in −20° C. 50% methanol in PBS and storage at 4° C. overnight. The following day, cells were washed in PBS/BSA and re-suspended in the same buffer containing STAT5 Y694 specific antibody. Following incubation with antibodies, cells were washed and analyzed by flow cytometry (BD Biosciences; FACS Calibur). The gate was set on live cells in the SSC-FSC plot and 10,000 events were collected.
as §2

Chain of JAK1 (P23458 875-1153): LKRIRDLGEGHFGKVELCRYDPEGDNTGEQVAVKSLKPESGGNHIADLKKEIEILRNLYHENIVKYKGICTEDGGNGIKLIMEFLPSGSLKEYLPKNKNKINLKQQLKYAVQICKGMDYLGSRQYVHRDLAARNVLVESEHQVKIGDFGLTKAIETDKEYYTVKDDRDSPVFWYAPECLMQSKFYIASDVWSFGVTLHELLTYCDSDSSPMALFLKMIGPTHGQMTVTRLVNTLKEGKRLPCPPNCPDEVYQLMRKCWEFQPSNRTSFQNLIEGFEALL

Compound	IC50 ([1]; Table 1, read-out: JAK1 IC50) [µM]	IC50 ([1]; Table 2, read-out: JAK1) [µM]	IC50 ([2]; Table 1, read-out: JAK2 IC50) [µM]	IC50 ([2]; Table 2, read-out: JAK2) [µM]	IC50 ([3]; Table 1, read-out: JAK3 IC50) [µM]	IC50 ([3]; Table 2, read-out: JAK3) [µM]	IC50 ([4]; Table 1, read-out: Tyk2 IC50) [µM]	IC50 ([4]; Table 2, read-out: TYK2) [µM]	inhibition at 0.2 µM [5] [%]	inhibition at 1 µM [5] [%]	inhibition at 0.1 µM [6] [%]	inhibition at 1 µM [6] [%]
CC(=O)N1CCN(c2ccc(Nc3cc(NCc4cc(F)cc(F)c4)c(C(N)=O)nn3)cc2)CC1 [Compound 20]	0.1 to 1	> 1	0.01 to 0.1	0.1 to 1	0.001 to 0.01	0.001 to 0.01	0.1 to 1	0.1 to 1	32	60	3	2
Cc1cc(Nc2cc(NCc3cccc(F)c3)c(C(N)=O)nn2)ccc1C(=O)N1CCCC1 [Compound 61]	> 1		0.01 to 0.1		0.001 to 0.01		0.1 to 1					
CN(C)C(=O)c1ccc(Nc2cc(NCc3cccc(F)c3)c(C(N)=O)nn2)cc1 [Compound 59]	> 1		0.1 to 1		0.01 to 0.1		> 1					
Cc1cc(Nc2cc(NCc3cccc(F)c3F)c(C(N)=O)nn2)ccc1C(=O)N1CCCC1 [Compound 42]	0.1 to 1		0.01 to 0.1		0.001 to 0.01		0.1 to 1					
CCC(=O)N1CCN(c2ccc(Nc3cc(NCc4c(F)cccc4F)c(C(N)=O)nn3)cc2)CC1 [Compound 33]	0.1 to 1	0.1 to 1	0.01 to 0.1	0.01 to 0.1	0.001 to 0.01	0.001 to 0.01	0.01 to 0.1	0.01 to 0.1	31	53	0	17
CC(=O)N1CCN(c2ccc(Nc3cc(NCc4ccccc4)c(C(N)=O)nn3)cc2)CC1 [Compound 5, 6-((4-(4-acetylpiperazin-1-yl)phenyl)amino)-4-(benzylamino)-pyridazine-3-carboxamide]	> 1		0.1 to 1		0.01 to 0.1		0.1 to 1					
Cc1cc(Nc2cc(NCc3cccc(F)c3)c(C(N)=O)nn2)ccc1C(=O)N(C)C [Compound 60]	> 1		0.1 to 1		0.01 to 0.1		> 1					

Continued, in another order:

IC50 ([1]; Table 1, read-out: JAK1 IC50) [µM]	IC50 ([1]; Table 2, read-out: JAK1) [µM]	IC50 ([2]; Table 1, read-out: JAK2 IC50) [µM]	IC50 ([2]; Table 2, read-out: JAK2) [µM]	IC50 ([3]; Table 1, read-out: JAK3 IC50) [µM]	IC50 ([3]; Table 2, read-out: JAK3) [µM]	IC50 ([4]; Table 1, read-out: Tyk2 IC50) [µM]	IC50 ([4]; Table 2, read-out: TYK2) [µM]	Compound	inhibition at 0.2 µM [5] [%]	inhibition at 1 µM [5] [%]	inhibition at 0.1 µM [6] [%]	inhibition at 1 µM [6] [%]
0.01 to 0.1	0.01 to 0.1	0.01 to 0.1	0.01 to 0.1	< 0.001	0.001 to 0.01			CC(=O)N1CCN(c2ccc(Nc3cc(NCc4cccc5[nH]ccc45)c(C(N)=O)nn3)cc2)CC1 [Compound 109]	69	95		
> 1		0.1 to 1		0.001 to 0.01		0.1 to 1		CC(=O)N1CCN(c2ccc(Nc3cc(NCc4cccc(F)c4)c(C(N)=O)nn3)cc2)CC1 [Compound 19]				
0.1 to 1		0.1 to 1		0.001 to 0.01		0.1 to 1		CC(=O)N1CCN(c2ccc(Nc3cc(NCc4ccccc4C)c(C(N)=O)nn3)cc2)CC1 [Compound 23]				
> 1		0.1 to 1		0.01 to 0.1		0.1 to 1		CCC(=O)N1CCN(c2ccc(Nc3cc(NCc4ccccc4F)c(C(N)=O)nn3)cc2)CC1 [Compound 29]				
0.1 to 1	> 1	0.1 to 1	0.1 to 1	0.001 to 0.01	0.001 to 0.01	0.1 to 1	0.1 to 1	CC(=O)N1CCN(c2ccc(Nc3cc(NCc4ccccc4F)c(C(N)=O)nn3)cc2)CC1 [Compound 18, 6-((4-(4-acetylpiperazin-1-yl)phenyl)amino)-4-((2-fluorobenzyl)amino)pyridazine-3-carboxamide]				
> 1		0.1 to 1		0.01 to 0.1		> 1		COc1cccc(CNc2cc(Nc3ccc(N4CCN(C(C)=O)CC4)cc3)nnc2C(N)=O)c1 [Compound 58]				
> 1		0.1 to 1		0.01 to 0.1		0.1 to 1		CC(=O)Nc1cccc(Nc2cc(NCc3cccc(F)c3)c(C(N)=O)nn2)c1 [Compound 65]				
0.1 to 1		0.1 to 1		0.001 to 0.01		0.1 to 1		CS(=O)(=O)Cc1ccc(Nc2cc(NCc3cccc(F)c3F)c(C(N)=O)nn2)cc1 [Compound 89]				
0.1 to 1	> 1	0.01 to 0.1	0.01 to 0.1	0.001 to 0.01	0.001 to 0.01	> 1	> 1	CC(=O)N1CCN(c2ccc(Nc3cc(NCc4cccc5ccsc45)c(C(N)=O)nn3)cc2)CC1 [Compound 98]	13	64		
> 1		> 1		0.01 to 0.1		> 1		CC(=O)N1CCN(c2ccc(Nc3cc(NC4(c5ccccc5)CC4)c(C(N)=O)nn3)cc2)CC1 [Compound 57]				
